Assay results: ChEMBL document CHEMBL5465560, “Selectivity Literature for EUbOPEN Chemogenomic Library” (2024)
Values belong to the molecule of their own block, whether it stands above or below them.

Experiments:
[1] = molecular target: Cyclin-dependent kinase-like 1 (Homo sapiens) (UniProt Q00532); assay: Selectivity interaction (KinomeScan (DiscoverX)) EUB0000666a CDKL1; conditions: at 10 µM
[2] = molecular target: Homeodomain-interacting protein kinase 1 (Homo sapiens, UniProt Q86Z02); assay: Selectivity interaction (KinomeScan (DiscoverX)) EUB0000607a HIPK1; conditions: at 10 µM
[3] = molecular target: T1, Tyrosine-protein kinase JAK3 (Homo sapiens) (UniProt P52333); assay: Selectivity interaction (Upstate Kinase Profiler service (Millipore)) EUB0000056c JAK3; conditions: at 1 µM
T1 sequence (whole entry): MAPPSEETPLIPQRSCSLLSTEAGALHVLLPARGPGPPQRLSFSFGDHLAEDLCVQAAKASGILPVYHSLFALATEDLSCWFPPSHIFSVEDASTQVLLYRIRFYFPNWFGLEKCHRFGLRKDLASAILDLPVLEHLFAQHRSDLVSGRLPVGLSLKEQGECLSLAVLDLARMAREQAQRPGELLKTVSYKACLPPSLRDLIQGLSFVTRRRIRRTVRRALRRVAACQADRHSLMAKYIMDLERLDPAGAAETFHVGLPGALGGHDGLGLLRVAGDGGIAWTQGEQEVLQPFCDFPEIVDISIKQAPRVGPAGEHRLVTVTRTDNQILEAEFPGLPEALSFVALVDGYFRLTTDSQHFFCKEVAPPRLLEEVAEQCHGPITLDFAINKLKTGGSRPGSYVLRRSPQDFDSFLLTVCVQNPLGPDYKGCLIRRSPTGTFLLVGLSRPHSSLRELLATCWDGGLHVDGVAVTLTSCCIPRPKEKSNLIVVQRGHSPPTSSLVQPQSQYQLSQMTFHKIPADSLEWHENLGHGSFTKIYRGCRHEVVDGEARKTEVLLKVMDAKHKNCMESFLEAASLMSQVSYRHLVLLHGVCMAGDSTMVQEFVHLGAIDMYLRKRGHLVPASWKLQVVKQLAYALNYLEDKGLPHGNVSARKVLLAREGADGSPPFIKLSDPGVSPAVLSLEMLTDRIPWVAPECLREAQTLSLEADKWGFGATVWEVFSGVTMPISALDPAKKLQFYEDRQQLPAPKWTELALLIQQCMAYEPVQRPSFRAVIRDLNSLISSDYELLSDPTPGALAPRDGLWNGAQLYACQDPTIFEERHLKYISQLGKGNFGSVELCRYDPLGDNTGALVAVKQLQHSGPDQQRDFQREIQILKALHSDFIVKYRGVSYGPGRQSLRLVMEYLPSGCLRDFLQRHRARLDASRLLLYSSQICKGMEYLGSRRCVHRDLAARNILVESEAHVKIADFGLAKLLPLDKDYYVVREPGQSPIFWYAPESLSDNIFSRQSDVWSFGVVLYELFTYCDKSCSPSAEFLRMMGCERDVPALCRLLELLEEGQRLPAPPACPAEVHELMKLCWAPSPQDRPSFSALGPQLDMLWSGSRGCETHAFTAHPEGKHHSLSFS

SRSF protein kinase 1 = SRSF protein kinase 1 (Homo sapiens, UniProt Q96SB4); assay: Selectivity interaction (ActivX KiNativ screen (kinase selectivity in THP-1 cell lysates)) EUB0000639a SRPK1; format: subcellular; conditions: lysate, at 0.01 µM
[4] = molecular target: Histone-lysine N-methyltransferase PRDM9 (Homo sapiens) (UniProt Q9NQV7); assay: Selectivity interaction (Methyltransferase screen (Scintillation proximity assays)) EUB0000255b PRDM9
[5] = molecular target: Serine/threonine-protein kinase MRCK alpha (Homo sapiens) (UniProt Q5VT25); conditions: at 10 µM
[6] = molecular target: Myosin light chain kinase, smooth muscle (Homo sapiens, UniProt Q15746); assay: Selectivity interaction (Ambit KINOMEscan and KiNATiv profiling in Jurkat cells) EUB0000090b MYLK; format: cell-based; conditions: at 1 µM
[7] = molecular target: Cyclin-dependent kinase 13 (Homo sapiens, UniProt Q14004); assay: Selectivity interaction (Ambit KINOMEscan and KiNATiv profiling in Jurkat cells) EUB0000090b CDK13; format: cell-based; conditions: at 1 µM
[8] = molecular target: Phosphatidylinositol 4,5-bisphosphate 3-kinase catalytic subunit beta isoform (Homo sapiens) (UniProt P42338); assay: Selectivity interaction (Ambit KINOMEscan and KiNATiv profiling in Jurkat cells) EUB0000090b PIK3CB; format: cell-based; conditions: at 1 µM
[9] = molecular target: Ribosomal protein S6 kinase alpha-1 (Homo sapiens, UniProt Q15418); assay: Selectivity interaction (KinomeScan (DiscoverX)) EUB0000655a RPS6KA1; conditions: at 10 µM
[10] = molecular target: Serine/threonine-protein kinase A-Raf (Homo sapiens) (UniProt P10398); assay: Selectivity interaction (Kinase panel (KiNativ target engagement assay in Jurkat cells)) EUB0001635a ARAF; format: cell-based; conditions: Selectivity number of off-targets 0.0, Selectivity number of targets 233.0, Source Knowledge https://www.sciencedirect.com/science/article/pii/S2451945619300674?via%3Dihub, at 1 µM
[11] = tested on: Epidermal growth factor receptor (Homo sapiens), P00533 [UNDEFINED MUTATION]; assay: Selectivity interaction (KinomeScan (DiscoverX)) EUB0000092b EGFR; conditions: at 10 µM
[12] = molecular target: Cyclin-dependent kinase 14 (Homo sapiens) (UniProt O94921); assay: Selectivity interaction (KinomeScan (DiscoverX)) EUB0000618a CDK14; conditions: at 10 µM
[13] = molecular target: Interferon-induced, double-stranded RNA-activated protein kinase (Homo sapiens) (UniProt P19525); assay: Selectivity interaction (KinomeScan (DiscoverX)) EUB0001619a EIF2AK2; conditions: at 1 µM

Sequence of Histone-lysine N-methyltransferase PRDM9 (Homo sapiens) (Q9NQV7 whole entry): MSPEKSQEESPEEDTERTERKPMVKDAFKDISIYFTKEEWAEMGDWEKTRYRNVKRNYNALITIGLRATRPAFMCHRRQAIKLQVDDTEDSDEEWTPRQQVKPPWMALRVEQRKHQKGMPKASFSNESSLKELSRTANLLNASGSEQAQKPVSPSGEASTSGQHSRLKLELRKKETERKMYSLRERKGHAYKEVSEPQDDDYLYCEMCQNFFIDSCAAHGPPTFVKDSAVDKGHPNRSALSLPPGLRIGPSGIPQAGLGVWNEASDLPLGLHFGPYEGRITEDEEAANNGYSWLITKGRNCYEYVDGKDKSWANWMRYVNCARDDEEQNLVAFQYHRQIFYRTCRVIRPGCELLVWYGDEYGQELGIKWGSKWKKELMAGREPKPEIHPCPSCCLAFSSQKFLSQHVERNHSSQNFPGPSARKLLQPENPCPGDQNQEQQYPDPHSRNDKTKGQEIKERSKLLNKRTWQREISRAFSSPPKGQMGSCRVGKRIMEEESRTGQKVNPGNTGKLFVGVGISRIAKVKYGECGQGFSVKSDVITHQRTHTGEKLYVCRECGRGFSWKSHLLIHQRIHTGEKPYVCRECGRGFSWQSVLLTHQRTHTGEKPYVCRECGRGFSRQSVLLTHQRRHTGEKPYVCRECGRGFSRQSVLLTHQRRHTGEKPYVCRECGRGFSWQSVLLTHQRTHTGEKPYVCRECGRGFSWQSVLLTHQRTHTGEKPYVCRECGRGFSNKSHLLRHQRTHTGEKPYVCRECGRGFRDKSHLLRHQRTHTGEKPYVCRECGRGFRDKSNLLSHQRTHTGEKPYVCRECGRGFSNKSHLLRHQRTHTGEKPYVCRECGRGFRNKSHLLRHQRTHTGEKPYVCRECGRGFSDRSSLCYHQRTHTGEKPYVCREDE
Sequence of Cyclin-dependent kinase-like 1 (Homo sapiens) (Q00532 whole entry): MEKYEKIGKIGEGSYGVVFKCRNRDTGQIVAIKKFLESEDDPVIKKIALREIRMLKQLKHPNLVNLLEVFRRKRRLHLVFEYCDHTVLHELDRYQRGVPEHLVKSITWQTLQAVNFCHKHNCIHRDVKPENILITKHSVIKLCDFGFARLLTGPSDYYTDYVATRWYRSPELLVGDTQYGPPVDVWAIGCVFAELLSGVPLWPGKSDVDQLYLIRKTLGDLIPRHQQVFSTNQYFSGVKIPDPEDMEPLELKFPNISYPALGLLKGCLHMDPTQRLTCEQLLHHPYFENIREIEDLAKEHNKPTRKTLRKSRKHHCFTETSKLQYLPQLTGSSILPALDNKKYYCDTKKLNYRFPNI
Sequence of Epidermal growth factor receptor (Homo sapiens), P00533 [UNDEFINED MUTATION] (P00533 whole entry, looked up, change not shown): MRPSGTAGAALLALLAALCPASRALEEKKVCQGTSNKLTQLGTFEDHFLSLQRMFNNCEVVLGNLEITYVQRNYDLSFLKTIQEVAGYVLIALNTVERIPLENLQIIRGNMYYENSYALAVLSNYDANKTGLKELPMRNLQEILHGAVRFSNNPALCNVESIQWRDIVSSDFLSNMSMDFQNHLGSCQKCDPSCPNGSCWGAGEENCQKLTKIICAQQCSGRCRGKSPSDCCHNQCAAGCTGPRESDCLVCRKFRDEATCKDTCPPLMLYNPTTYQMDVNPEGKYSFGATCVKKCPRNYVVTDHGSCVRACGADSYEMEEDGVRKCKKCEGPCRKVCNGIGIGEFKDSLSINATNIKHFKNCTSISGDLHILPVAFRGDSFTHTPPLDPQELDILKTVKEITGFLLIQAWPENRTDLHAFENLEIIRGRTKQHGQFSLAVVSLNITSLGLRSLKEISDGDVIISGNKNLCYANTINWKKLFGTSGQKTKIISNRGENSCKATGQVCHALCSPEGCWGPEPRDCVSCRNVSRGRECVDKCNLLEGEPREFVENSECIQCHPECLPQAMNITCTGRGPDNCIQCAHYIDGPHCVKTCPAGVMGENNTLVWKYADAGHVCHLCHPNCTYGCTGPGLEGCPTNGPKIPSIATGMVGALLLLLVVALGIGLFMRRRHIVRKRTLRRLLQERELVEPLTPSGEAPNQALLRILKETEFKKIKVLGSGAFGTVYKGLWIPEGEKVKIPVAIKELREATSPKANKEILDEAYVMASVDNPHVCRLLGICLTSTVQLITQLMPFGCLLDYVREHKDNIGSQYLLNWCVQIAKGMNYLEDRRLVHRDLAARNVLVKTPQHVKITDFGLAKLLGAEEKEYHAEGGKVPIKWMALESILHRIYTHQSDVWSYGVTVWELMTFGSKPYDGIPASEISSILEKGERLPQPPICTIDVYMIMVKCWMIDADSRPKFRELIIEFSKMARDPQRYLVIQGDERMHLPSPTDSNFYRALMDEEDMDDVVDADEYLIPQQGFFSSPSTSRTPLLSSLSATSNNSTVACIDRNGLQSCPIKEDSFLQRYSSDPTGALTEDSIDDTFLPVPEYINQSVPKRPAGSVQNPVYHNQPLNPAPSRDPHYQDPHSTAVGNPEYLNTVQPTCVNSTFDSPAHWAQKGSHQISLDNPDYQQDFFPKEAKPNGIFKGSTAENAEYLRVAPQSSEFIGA
Sequence of Cyclin-dependent kinase 13 (Q14004 whole entry, looked up, canonical isoform): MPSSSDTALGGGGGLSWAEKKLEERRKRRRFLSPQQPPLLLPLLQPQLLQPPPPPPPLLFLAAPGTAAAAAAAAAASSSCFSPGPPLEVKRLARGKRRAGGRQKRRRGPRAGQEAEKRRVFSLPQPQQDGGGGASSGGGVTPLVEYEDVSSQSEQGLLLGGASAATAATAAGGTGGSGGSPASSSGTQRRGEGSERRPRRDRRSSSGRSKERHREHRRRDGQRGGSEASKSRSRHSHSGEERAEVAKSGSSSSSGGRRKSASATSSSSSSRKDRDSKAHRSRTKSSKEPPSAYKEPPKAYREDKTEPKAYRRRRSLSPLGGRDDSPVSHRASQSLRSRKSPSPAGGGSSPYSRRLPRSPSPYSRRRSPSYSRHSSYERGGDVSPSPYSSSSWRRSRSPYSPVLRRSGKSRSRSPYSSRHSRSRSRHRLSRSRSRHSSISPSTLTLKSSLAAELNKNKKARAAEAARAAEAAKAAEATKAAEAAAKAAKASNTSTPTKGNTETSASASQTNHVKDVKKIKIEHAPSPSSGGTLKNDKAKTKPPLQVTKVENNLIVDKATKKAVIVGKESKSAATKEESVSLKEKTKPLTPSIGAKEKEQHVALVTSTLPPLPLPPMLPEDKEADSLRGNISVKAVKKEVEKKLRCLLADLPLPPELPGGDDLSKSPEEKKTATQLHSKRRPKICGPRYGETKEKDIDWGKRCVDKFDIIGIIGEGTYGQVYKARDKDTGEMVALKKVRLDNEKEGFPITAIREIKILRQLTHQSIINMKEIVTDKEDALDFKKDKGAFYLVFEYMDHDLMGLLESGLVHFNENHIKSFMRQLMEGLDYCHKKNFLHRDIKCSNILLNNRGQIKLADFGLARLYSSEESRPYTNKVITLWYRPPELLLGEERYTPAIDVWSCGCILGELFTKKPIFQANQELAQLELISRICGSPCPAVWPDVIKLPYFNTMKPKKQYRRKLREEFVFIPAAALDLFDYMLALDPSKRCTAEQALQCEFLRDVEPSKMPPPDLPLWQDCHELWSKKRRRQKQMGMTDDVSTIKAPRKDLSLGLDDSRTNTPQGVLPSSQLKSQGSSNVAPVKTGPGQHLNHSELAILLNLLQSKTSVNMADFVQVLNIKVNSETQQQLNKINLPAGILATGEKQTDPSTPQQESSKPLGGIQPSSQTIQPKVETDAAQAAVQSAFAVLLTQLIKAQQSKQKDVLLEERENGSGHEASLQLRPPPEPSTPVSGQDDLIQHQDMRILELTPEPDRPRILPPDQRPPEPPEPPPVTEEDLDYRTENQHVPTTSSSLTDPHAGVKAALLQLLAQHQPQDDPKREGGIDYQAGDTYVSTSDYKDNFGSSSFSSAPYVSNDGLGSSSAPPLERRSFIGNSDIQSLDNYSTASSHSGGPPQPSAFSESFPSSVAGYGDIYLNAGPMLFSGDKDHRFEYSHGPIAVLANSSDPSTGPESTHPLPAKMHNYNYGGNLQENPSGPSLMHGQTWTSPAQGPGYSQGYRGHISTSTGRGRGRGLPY
Sequence of Cyclin-dependent kinase 14 (Homo sapiens) (O94921 whole entry): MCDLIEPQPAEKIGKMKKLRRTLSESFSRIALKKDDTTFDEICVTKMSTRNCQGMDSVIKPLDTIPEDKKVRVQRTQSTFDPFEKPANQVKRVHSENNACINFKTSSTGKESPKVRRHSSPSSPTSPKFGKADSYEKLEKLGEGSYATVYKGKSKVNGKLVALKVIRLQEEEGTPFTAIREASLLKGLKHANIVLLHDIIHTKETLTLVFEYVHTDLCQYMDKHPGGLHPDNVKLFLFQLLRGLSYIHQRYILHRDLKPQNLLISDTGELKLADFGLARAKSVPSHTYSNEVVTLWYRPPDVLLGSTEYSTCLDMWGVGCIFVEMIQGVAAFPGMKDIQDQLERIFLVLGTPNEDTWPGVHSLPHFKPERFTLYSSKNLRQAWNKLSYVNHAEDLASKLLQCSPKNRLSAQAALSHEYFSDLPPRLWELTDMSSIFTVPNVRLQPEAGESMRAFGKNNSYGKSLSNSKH
Sequence of SRSF protein kinase 1 (Q96SB4 whole entry): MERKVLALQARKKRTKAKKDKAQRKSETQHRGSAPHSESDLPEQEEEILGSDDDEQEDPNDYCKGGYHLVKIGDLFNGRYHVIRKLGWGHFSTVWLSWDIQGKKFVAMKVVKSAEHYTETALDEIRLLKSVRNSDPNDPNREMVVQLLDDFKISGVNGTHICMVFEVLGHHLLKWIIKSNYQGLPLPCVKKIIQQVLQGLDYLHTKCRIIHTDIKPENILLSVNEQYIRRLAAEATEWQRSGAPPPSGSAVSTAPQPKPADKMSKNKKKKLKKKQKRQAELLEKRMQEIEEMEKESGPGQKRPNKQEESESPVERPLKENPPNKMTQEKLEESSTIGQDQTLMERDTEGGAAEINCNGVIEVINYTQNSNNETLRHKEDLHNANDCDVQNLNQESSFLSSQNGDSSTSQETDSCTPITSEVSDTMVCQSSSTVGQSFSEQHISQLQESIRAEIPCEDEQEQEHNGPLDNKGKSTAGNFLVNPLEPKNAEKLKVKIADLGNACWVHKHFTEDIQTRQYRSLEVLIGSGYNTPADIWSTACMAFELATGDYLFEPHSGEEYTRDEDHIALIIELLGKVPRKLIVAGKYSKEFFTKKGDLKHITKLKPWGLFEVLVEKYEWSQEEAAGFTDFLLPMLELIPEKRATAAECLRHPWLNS

SMILES: O=C(NOC[C@H](O)CO)c1ccc(F)c(F)c1Nc1ccc(I)cc1F
% of control [1]: 78%

SMILES: CNC(=O)Nc1ccc(-c2nc(N3CC4CCC(C3)O4)c3cnn(C4CCC5(CC4)OCCO5)c3n2)cc1
% of control [2]: 100%

% of inhibition [3]: 4%
SMILES: Cc1ccc(-c2ccc3c(ccc4sc5c(c43)NC[C@@H](C)NC5=O)n2)cn1

% of inhibition (SRSF protein kinase 1): -7.7%
SMILES: CC[C@@H]1[C@H](F)C(=O)N[C@@H]1COc1nccc2cc(C(N)=O)c(OC)cc12 [ZIMLOVISERTIB]

SMILES: COCCN1CCC(c2cc(CN(C)C(=O)c3cccc(Oc4ccccc4)c3)ccn2)CC1
% activity ([4]; at 1 µM): > 95% | % activity ([4]; at 10 µM): > 90%

SMILES: COCC(=O)NC/C=C/c1ccc2ncnc(Nc3ccc(Oc4ccc(C)nc4)c(C)c3)c2c1 [CP-724714]
% of control [5]: 100%

SMILES: CN(C)C/C=C/C(=O)Nc1ccc(C(=O)N2CCCC(Nc3ncc(Cl)c(-c4c[nH]c5ccccc45)n3)C2)cc1 (stereo not given)
% of control [6]: 78% | % of control [7]: 2.8% | % of control [8]: 100%

SMILES: CN(C)CCOc1ccc(-c2nc(-c3ccncc3)c(-c3ccc4c(c3)CC/C4=N\O)[nH]2)cc1
% of control [9]: 91%

SMILES: C=CC(=O)Nc1ccc(C(=O)Nc2[nH]nc3c2CN(C(=O)N[C@H](CN(C)C)c2ccccc2)C3(C)C)cc1
% of engagement [10]: -2.2%

SMILES: CCC(=O)N1CCN(c2ccc(-n3c(=O)ccc4cnc5ccc(-c6cnc7ccccc7c6)cc5c43)cc2C(F)(F)F)CC1
% of control [11]: 84%

SMILES: O[C@H]1CC[C@H](Nc2ncc3nc(Nc4c(F)cc(F)cc4F)n([C@H]4CCOC4)c3n2)CC1
% of control [12]: 100%

SMILES: N#Cc1cccc(-c2c[nH]c3ncnc(N4CCOCC4)c23)c1
% of control [13]: 100%
